1 sequence from patent publication US7273848B2, “Apolipoprotein A-I agonists and their use to treat dyslipidemic disorders” (priority 1997, dated 2007) can be followed below.

No end group written: not given here.

The nature of the data set: Superose 6 gel filtration chromatography of peptide-lipid complexes. The format is physicochemical. The settings on record: peptide/DPPC complexes, 1 mg peptide and 3 mgs DPPC, colyophilized, in 0.9% NaCl. Here is the method:
An aliquot of the resulting reconstituted preparation can be characterized to confirm that the complexes in the preparation have the desired size distribution; e.g., the size distribution of HDL. Gel filtration chromatography can be used to this end. In the working examples described infra, a Pharmacia Superose 6 FPLC gel filtration chromatography system was used. The buffer used contains 150 mM NaCl in 50 mM phosphate buffer, pH 7.4. A typical sample volume is 20 to 200 microliters of complexes containing 5 mgs peptide/ml. The column flow rate is 0.5 mls/min. A series of proteins of known molecular weight and Stokes' diameter as well as human HDL are used as standards to calibrate the column. The proteins and lipoprotein complexes are monitored by absorbance or scattering of light of wavelength 254 or 280 nm.
Peptide-phospholipid complexes containing peptide 149 (SEQ ID NO:149) were prepared by colyophilization as described above. The preparation contained 1 mg peptide and 3 mgs DPPC by weight. […] The chromatography was monitored by absorbance or scattering of light of wavelength 280 nm. […] The vast majority of both phospholipid and UV absorbance were recovered together in a few fractions with peaks at approximately 15.8 mls. […]
In general terms: In gel filtration, larger molecules generally elute earlier.

Take PVLELFENLWERLLDALQKKLK [peptide 149]: the “Stokes' diameter” value turned out to be 87 Angstroms.
